Experimental data taken from patent US8785445B2 (Array BioPharma Inc., priority 2008, dated 2014).
Like-named read-outs stand apart in the source and are kept apart here.

Target: T1, human DP2 (Homo sapiens, UniProt Q9Y5Y4)
T1 construct: expressed in transfected cells; membranes prepared
T1 sequence (Q9Y5Y4 1-395): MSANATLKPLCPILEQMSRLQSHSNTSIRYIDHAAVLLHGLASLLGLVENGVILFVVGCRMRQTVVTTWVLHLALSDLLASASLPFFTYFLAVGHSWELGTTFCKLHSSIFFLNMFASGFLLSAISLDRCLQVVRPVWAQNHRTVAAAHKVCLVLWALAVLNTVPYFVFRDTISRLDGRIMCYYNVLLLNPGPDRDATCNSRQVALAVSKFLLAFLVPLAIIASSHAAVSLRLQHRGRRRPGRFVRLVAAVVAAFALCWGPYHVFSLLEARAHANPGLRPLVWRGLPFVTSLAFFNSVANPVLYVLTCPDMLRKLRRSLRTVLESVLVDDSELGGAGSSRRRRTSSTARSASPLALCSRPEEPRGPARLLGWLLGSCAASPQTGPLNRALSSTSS
Assay: DP-2 binding inhibition assay (3H-PGD2, membranes of DP2-expressing K562 cells)
Description: The coding sequence of human DP2 was introduced into the human Leukemic cell line K562 by electroporation and stable clones expressing DP2 were obtained by limiting dilution followed by cell surface staining with a rat monoclonal antibody specific for human DP2. Membranes were prepared from one of these DP2 expressing clones and used to determine the ability of the compounds of the present invention to inhibit binding of prostaglandin D2 (PGD2) to its receptor DP2 in the presence of one or more of the following serum protein concentrations, 0.1% BSA, 1% HSA or 4% HSA, by the following procedure. […] After incubation for 60 minutes at room temperature, the assay was transferred to a filtration plate (#MAFB; Millipore Corporation, Bedford, Mass.), and washed three times with binding buffer. Radioactivity was measured by a scintillation counter (TopCount; PerkinElmer Life Sciences, Boston, Mass.). Nonspecific binding was determined by incubations in the presence of 1 μM unlabeled PGD2 or 5 μM of a known DP2 antagonist. IC50 values for inhibition of binding were determined for each compound tested from the inflexion point of a standard 4-parameter logistical curve fitted to the values obtained.

[1] = 4% HSA, read-out: EC50 (nM) 4% HSA
[2] = 0.1% BSA, read-out: EC50 (nM) 0.1% BSA
[3] = 1% HSA, read-out: EC50 (nM) 1% HSA

SMILES | EC50 [1] [nM] | EC50 [2] [nM] | EC50 [3] [nM]
O=C(Nc1ccc2cc(Cl)ccc2n1)c1ccc(Oc2cc3c(cc2Cl)[C@H](C(=O)O)CCO3)cc1 (single isomer, unassigned; enantiomer 1) [Example 36, 6-Chloro-7-(4-(6-chloroquinolin-2-ylcarbamoyl)phenoxy)chroman-4-carboxylic acid, Enantiomer 1] | 84 |  | 
O=C(Nc1cccc(-c2ccc(Cl)cc2)n1)c1ccc(Oc2cc3c(cc2Cl)[C@@H](C(=O)O)CCO3)cc1 (single isomer, unassigned; enantiomer 1) [Example 141, 6-Chloro-7-(4-(6-(4-chlorophenyl)pyridin-2-ylcarbamoyl)phenoxy)chroman-4-carboxylic acid, Enantiomer 1] | 3920 |  | 
O=C(Nc1ccc2cc(Cl)ccc2n1)c1ccc(Oc2cc3c(cc2Cl)[C@@H](C(=O)O)CCO3)cc1 (single isomer, unassigned; enantiomer 2) [Example 37, 6-Chloro-7-(4-(6-chloroquinolin-2-ylcarbamoyl)phenoxy)chroman-4-carboxylic acid, Enantiomer 2] | 4000 |  | 
N#Cc1cc2c(cc1Oc1ccc(C(=O)Nc3ccc(C(F)(F)F)cn3)cc1)OCCC2C(=O)O (centres unmarked) [Example 1, 7-(4-((5-(Trifluoromethyl)pyridin-2-yl)carbamoyl)phenoxy)-6-cyanochroman-4-carboxylic acid] |  | 19.3 | 
N#Cc1cc2c(cc1Oc1ccc(C(=O)Nc3ccc(Cl)cn3)cc1)OCCC2C(=O)O (centres unmarked) [Example 2, 7-(4-(5-Chloropyridin-2-ylcarbamoyl)phenoxy)-6-cyanochroman-4-carboxylic acid] |  | 26.7 | 
N#Cc1cc2c(cc1Oc1ccc(C(=O)Nc3ccc4ccccc4n3)cc1)OCCC2C(=O)O (centres unmarked) [Example 3, 6-Cyano-7-(4-(quinolin-2-ylcarbamoyl)phenoxy)chroman-4-carboxylic acid] |  | 12.8 | 482
N#Cc1cc2c(cc1Oc1ccc(C(=O)Nc3cnc4ccccc4n3)cc1)OCCC2C(=O)O (centres unmarked) [Example 4, 6-Cyano-7-(4-(quinoxalin-2-ylcarbamoyl)phenoxy)chroman-4-carboxylic acid] |  | 27.7 | 370
N#Cc1cc2c(cc1Oc1ccc(C(=O)Nc3ccc4cc(Cl)ccc4n3)cc1)OCCC2C(=O)O (centres unmarked) [Example 5, 7-(4-(6-Chloroquinolin-2-ylcarbamoyl)phenoxy)-6-cyanochroman-4-carboxylic acid] | 357 | 5.9 | 137

Second part, the compound after the results:

EC50 [1] [nM] | EC50 [2] [nM] | EC50 [3] [nM] | SMILES
21.7 |  |  | O=C(Nc1cccc(-c2ccc(Cl)cc2)n1)c1ccc(Oc2cc3c(cc2Cl)[C@H](C(=O)O)CCO3)cc1 (single isomer, unassigned; enantiomer 2) [Example 142, 6-Chloro-7-(4-(6-(4-chlorophenyl)pyridin-2-ylcarbamoyl)phenoxy)chroman-4-carboxylic acid, Enantiomer 2]
22 |  |  | O=C(Nc1cccc(-c2ccc(Cl)cc2)n1)c1ccc(Oc2cc3c(cc2Cl)C(C(=O)O)CCO3)cc1 (single isomer, unassigned; enantiomer 2) [Example 182, Enantiomer 2 of 6-Chloro-7-(4-(6-(4-chlorophenyl)pyridin-2-ylcarbamoyl)phenoxy)chroman-4-carboxylic acid]
60 | 1.2 |  | O=C(Nc1ccc(-c2ccc(C(F)(F)F)cc2)nn1)c1ccc(Oc2cc3c(cc2Cl)C(C(=O)O)CCO3)cc1 (single isomer, unassigned; enantiomer 2) [Example 185, Enantiomer 2 of sodium 6-chloro-7-(4-(6-(4-(trifluoromethyl)phenyl)pyridazin-3-ylcarbamoyl)phenoxy)chroman-4-carboxylate]
5000 |  |  | O=C(Nc1cccc(-c2ccc(Cl)cc2)n1)c1ccc(Oc2cc3c(cc2Cl)C(C(=O)O)CCO3)cc1 (stereo in doubt) [Example 206, (R)-6-chloro-7-(4-(6-(4-chlorophenyl)pyridin-2-ylcarbamoyl)phenoxy) chroman-4-carboxylic acid]
